According to patent US7786108B2, “Compounds and method for treating dyslipidemia” (Eli Lilly and Company, priority 2004, dated 2010):
Where a name gives a salt, the structure may show the parent alone.

tested on: transgenic mice that express both human CETP and human apolipoprotein A-1; experiment: In vivo assay of plasma lipids: elevation of HDL cholesterol; conditions: Mus musculus; single oral dose 30 mg/kg; HDL cholesterol in serum at 8 hr after administration; relative to a control; read-out: % HDL cholesterol increase
Source text: Additional serum lipids can be analyzed by enzymatic methods.

Q: `Cc1cc2c(cc1C(F)(F)F)N(C1CCOCC1)CCC[C@@H]2N(Cc1cc(C(F)(F)F)cc(C(F)(F)F)c1)c1nnn(C)n1` [Example 139, (S)-(3,5-Bis-trifluoromethyl-benzyl)-[7-methyl-1-(tetrahydro-pyran-4-yl)-8-trifluoromethyl-2,3,4,5-tetrahydro-1H-benzo[b]azepin-5-yl]-(2-methyl-2H-tetrazol-5-yl)-amine] was tested. Which change in vivo at 30 mg/kg did it give?
A: Its change in vivo at 30 mg/kg is 130%.

Q: Which change in vivo at 30 mg/kg does the source give for `Cc1cc2c(cc1C(F)(F)F)N(C(=O)OC1CCCC1)CCC[C@@H]2N(Cc1cc(C(F)(F)F)cc(C(F)(F)F)c1)c1nnn(C)n1` [Example 20, (S)-5-[(3,5-Bis-trifluoromethyl-benzyl)-(2-methyl-2H-tetrazol-5-yl)-amino]-7-methyl-8-trifluoromethyl-2,3,4,5-tetrahydro-benzo[b]azepine-1-carboxylic acid cyclopentyl ester] here?
A: The change in vivo at 30 mg/kg was 72%.

Q: `Cc1cc2c(cc1C(F)(F)F)N(C(=O)OC(C)(C)C)CCC[C@@H]2N(Cc1cc(Cl)cc(C(F)(F)F)c1)c1nnn(C)n1` [Example 185, (S)-5-[(3-Chloro-5-trifluoromethyl-benzyl)-(2-methyl-2H-tetrazol-5-yl)-amino]-7-methyl-8-trifluoromethyl-2,3,4,5-tetrahydro-benzo[b]azepine-1-carboxylic acid tert-butyl ester] was tested. Which change in vivo at 30 mg/kg did it give?
A: The change in vivo at 30 mg/kg was 155%.

Q: Which change in vivo at 30 mg/kg does the source give for `Cc1c2c(cc3c1N(CC1CCCC1)CCC[C@@H]3N(Cc1cc(C(F)(F)F)cc(C(F)(F)F)c1)c1nnn(C)n1)COC2` [Example 170, (S)-(3,5-Bis-trifluoromethyl-benzyl)-(5-cyclopentylmethyl-4-methyl-3,5,6,7,8,9-hexahydro-1H-2-oxa-5-aza-cyclohepta[f]inden-9-yl)-(2-methyl-2H-tetrazol-5-yl)-amine] here?
A: The change in vivo at 30 mg/kg was 95%.

Q: With `Cc1cc2c(cc1C(F)(F)F)N(C1CCC(C(=O)O)CC1)CCC[C@@H]2N(Cc1cc(C(F)(F)F)cc(C(F)(F)F)c1)c1nnn(C)n1` (stereo partly drawn) [Example 175, (S)-4-{5-[(3,5-Bis-trifluoromethyl-benzyl)-(2-methyl-2H-tetrazol-5-yl)-amino]-7-methyl-8-trifluoromethyl-2,3,4,5-tetrahydro-benzo[b]azepin-1-yl}-cyclohexanecarboxylic acid] as the molecule, how does the change in vivo at 30 mg/kg read?
A: Its change in vivo at 30 mg/kg is 100%.

Q: With `Cc1cc2c(cc1C(F)(F)F)N(Cc1nccs1)CCC[C@@H]2N(Cc1cc(C(F)(F)F)cc(C(F)(F)F)c1)c1nnn(CCN)n1` [Example 129, (S)-[2-(2-Amino-ethyl)-2H-tetrazol-5-yl]-(3,5-bis-trifluoromethyl-benzyl)-(7-methyl-1-thiazol-2-ylmethyl-8-trifluoromethyl-2,3,4,5-tetrahydro-1H-benzo[b]azepin-5-yl)-amine] as the molecule, how does the change in vivo at 30 mg/kg read?
A: Its change in vivo at 30 mg/kg is 92%.

Q: How did the change in vivo at 30 mg/kg turn out when `Cc1cc2c(cc1C(F)(F)F)N(Cc1cncc(C(=O)O)c1)CCC[C@@H]2N(Cc1cc(C(F)(F)F)cc(C(F)(F)F)c1)c1nnn(C)n1` [Example 142, (S)-5-{5-[(3,5-Bis-trifluoromethyl-benzyl)-(2-methyl-2H-tetrazol-5-yl)-amino]-7-methyl-8-trifluoromethyl-2,3,4,5-tetrahydro-benzo[b]azepin-1-ylmethyl}-nicotinic acid hydrochloride] was run?
A: Its change in vivo at 30 mg/kg is 90%.

Q: Which change in vivo at 30 mg/kg does the source give for `Cc1cc2c(cc1C(F)(F)F)N(CCO)CCC[C@@H]2N(Cc1cc(C(F)(F)F)cc(C(F)(F)F)c1)c1nnn(C)n1` [Example 33, (S)-2-{5-[(3,5-Bis-trifluoromethyl-benzyl)-(2-methyl-2H-tetrazol-5-yl)-amino]-7-methyl-8-trifluoromethyl-2,3,4,5-tetrahydro-benzo[b]azepin-1-yl}-ethanol] here?
A: Its change in vivo at 30 mg/kg is 354%.

Q: How did the change in vivo at 30 mg/kg turn out when `Cc1cc2c(cc1C(F)(F)F)N(CC1CC1)CCC[C@@H]2N(Cc1cc(Cl)cc(C(F)(F)F)c1)c1nnn(C)n1` [Example 196, (S)-(3-Chloro-5-trifluoromethyl-benzyl)-(1-cyclopropylmethyl-7-methyl-8-trifluoromethyl-2,3,4,5-tetrahydro-1H-benzo[b]azepin-5-yl)-(2-methyl-2H-tetrazol-5-yl)-amine] was run?
A: The change in vivo at 30 mg/kg was 126%.
